Reference: patent US20100317524A1, “Sulfonylureas” (Bayer CropScience AG, priority 2005, published 2010)

Legend:
[1] = test system: weed plants such as Sinapis alba, Chrysanthemum segetum, Avena sativa, Stellaria media, Echinochloa crus-galli, Lolium multiflorum, Setaria viridis, Abutilon …; assay: Pre-emergence effect on weeds (greenhouse pot test, visual scoring); assay type: in vivo; conditions: applied pre-emergence at a rate of 0.3 kg or less of active substance per hectare; visual scoring after 3 to 4 weeks vs untreated controls
Source text: Seeds or sections of rhizome from monocot and dicot weed plants were laid out in sandy loam soil in cardboard pots, and covered with soil. The compounds of the invention, formulated as wettable powders or emulsifiable concentrates, were then applied, in the form of aqueous suspensions or emulsions, at various dosages, onto the surface of the covering earth, at an application rate of 600 to 800 l of water per hectare (converted). Following the treatment, the pots were placed in a greenhouse and maintained under good growth conditions for the weeds. Visual scoring of the plant damage or emergence damage was made when the test plants had emerged, after a test time of 3 to 4 weeks, in comparison to untreated controls.

[2] = test system: weed plants such as Sinapis alba, Echinochloa crus-galli, Lolium multiflorum, Chrysanthemum segetum, Setaria viridis, Abutilon theophrasti, Amaranthus …; assay: Post-emergence effect on weeds (greenhouse pot test, visual scoring); assay type: in vivo; conditions: applied post-emergence (three-leaf stage) at a rate of 0.3 kg or less of active substance per hectare; visual scoring after about 3 to 4 weeks vs untreated controls
Method: Seeds or sections of rhizome from monocot and dicot broadleaf weeds were laid out in sandy loam soil in plastic pots, covered with earth, and cultivated in a greenhouse under good growth conditions. Three weeks after sowing, the test plants were treated at the three-leaf stage. The compounds of the invention, formulated as wettable powders or as emulsion concentrates, were sprayed in different dosages onto the green parts of the plants, at an application rate of 600 to 800 l of water per hectare (converted). After the test plants had stood in the greenhouse under optimum growth conditions for a period of about 3 to 4 weeks, the effect of the products was scored visually in comparison to untreated controls.

SMILES | herbicidal action against weed plants, pre-emergence [1] | herbicidal action against weed plants, post-emergence [2]
COc1cc(OC)nc(NC(=O)NS(=O)(=O)c2c(I)cccc2OC(C)C(F)(F)F)n1 (centres unmarked) [Compound 1.362] | very good herbicidal action | very good herbicidal action
COc1cc(OC)nc(NC(=O)NS(=O)(=O)c2c(I)cccc2OC(C)C)n1 [Compound 1.178] | very good herbicidal action | very good herbicidal action
CCCOc1cccc(I)c1S(=O)(=O)NC(=O)Nc1nc(OC)nc(OC)n1 [Compound 1.175] | very good herbicidal action | very good herbicidal action
CCC(C)Oc1cccc(I)c1S(=O)(=O)NC(=O)Nc1nc(OC)cc(OC)n1 (centres unmarked) [Compound 1.196] | very good herbicidal action | very good herbicidal action
Cc1cc(C)nc(NC(=O)NS(=O)(=O)c2c(I)cccc2C(F)(F)F)n1 [Compound 1.099] | very good herbicidal action | very good herbicidal action
COc1nc(NC(=O)NS(=O)(=O)c2c(I)cccc2OCC(F)F)nc(OC)n1 [Compound 1.355] | very good herbicidal action | very good herbicidal action
COc1nc(C)nc(NC(=O)NS(=O)(=O)c2c(C)cccc2I)n1 [Compound 1.016] | very good herbicidal action | very good herbicidal action
Cc1cc(C)nc(NC(=O)NS(=O)(=O)c2c(I)cccc2OS(=O)(=O)N(C)C)n1 [Compound 1.509] | very good herbicidal action | very good herbicidal action
Cc1cc(C)nc(NC(=O)NS(=O)(=O)c2c(I)cccc2OC(C)C)n1 [Compound 1.186] | very good herbicidal action | very good herbicidal action
COc1cc(Cl)nc(NC(=O)NS(=O)(=O)c2c(I)cccc2OCC(F)F)n1 [Compound 1.354] | very good herbicidal action | very good herbicidal action
COc1nc(NC(=O)NS(=O)(=O)c2c(C)cccc2I)nc(OC)n1 [Compound 1.025] | very good herbicidal action | very good herbicidal action
COc1cc(Cl)nc(NC(=O)NS(=O)(=O)c2c(I)cccc2OC(F)F)n1 [Compound 1.330] | very good herbicidal action | very good herbicidal action
COc1cc(OC)nc(NC(=O)NS(=O)(=O)c2c(I)cccc2OC(F)F)n1 [Compound 1.321] | very good herbicidal action | very good herbicidal action
COc1cc(Cl)nc(NC(=O)NS(=O)(=O)c2c(F)cccc2I)n1 [Compound 1.004] | very good herbicidal action | very good herbicidal action
Cc1cc(C)nc(NC(=O)NS(=O)(=O)c2c(C)cccc2I)n1 [Compound 1.020] | very good herbicidal action | very good herbicidal action
COc1cc(Cl)nc(NC(=O)NS(=O)(=O)c2c(I)cccc2OC(F)(F)F)n1 [Compound 1.311] | very good herbicidal action | very good herbicidal action
COc1cc(Cl)nc(NC(=O)NS(=O)(=O)c2c(C)cccc2I)n1 [Compound 1.021] | very good herbicidal action | very good herbicidal action
COc1nc(NC(=O)NS(=O)(=O)c2c(I)cccc2OC)nc(OC)n1 [Compound 1.159] | very good herbicidal action | very good herbicidal action
COc1cc(OC)nc(NC(=O)NS(=O)(=O)c2c(I)cccc2C(F)(F)F)n1 [Compound 1.091] | very good herbicidal action | very good herbicidal action
CCCOc1cccc(I)c1S(=O)(=O)NC(=O)Nc1nc(OC)cc(OC)n1 [Compound 1.171] | very good herbicidal action | very good herbicidal action
COc1nc(NC(=O)NS(=O)(=O)c2c(I)cccc2OC(F)(F)F)nc(OC)n1 [Compound 1.315] | very good herbicidal action | very good herbicidal action
COc1cc(Cl)nc(NC(=O)NS(=O)(=O)c2c(I)cccc2OCC(C)C)n1 [Compound 1.563] | very good herbicidal action | very good herbicidal action
